Experimental data taken from patent US7109193B2, “Tricyclic diazepines tocolytic oxytocin receptor antagonists” (Wyeth, priority 2001, dated 2006).

Target: T1, human vasopressin V1a receptor subtype (Homo sapiens, UniProt P37288)
T1 construct: host or cells: CHO cells (pZeoSV vector for the Thibonnier line)
Assay: Vasopressin binding in Chinese Hamster Ovary cell membranes expressing human vasopressin V1a subtype receptors
Details: 100 nM, CHO cell membranes, [3H]Manning ligand, values without parentheses
Description: Vasopressin Binding in Chinese Hamster Ovary Cell Membranes Expressing Human Vasopressin V1a Subtype Receptors
The trypsin is removed by aspiration and the cells dislodged by tapping. Cell Culture medium (e.g. 30 mL for 1:30 split) is immediately added and mixed well to inactivate trypsin. 1 mL of detached cells is added to new culture flasks containing fresh cell culture medium (e.g., into 25 mL per T-150 flask), and mixed gently. The cells are incubated at 37° C. in 5% CO2. The medium is changed at 3 to 4 days interval (or as appropriate). […] All steps are done under sterile conditions. B. Membrane Preparation: The cells are washed twice gently with Hank's Balanced Salt solution (e.g,. use 10 mL per T-150 flask). […] The contents are transferred to centrifuge tubes (50 mL) kept in an ice bath. All subsequent steps are done at 4° C. The tubes are centrifuged at 300×g for 15 min (1380 rpm on SORVAL, Model RT6000D, using the rotor for 50 mL tubes). The supernatant is discarded and the cells suspended in homogenizing buffer(10 mM Tris-HCl containing 0.25 M sucrose and 1 mM EDTA, pH 7.4) ensuring that the volume of the buffer is about ten times the volume of the cell pellet. The cells are pooled into a centrifuge tube (50 mL) and homogenized with a Polytron at setting 6 for 10 sec. The homogenate is transferred into a Potter-Elvjehm homogenizer and homogenized with 3 strokes. The homogenate is centrifuged at 1500×g for 10 min at 4° C. (3100 rpm using SORVAL, model RT6000D, using the rotor for 50 mL tubes). The pellet is discarded. The supernatant is centrifuged at 100,000×g for 60 min. at 4° C. (Beckman L8-80M ultracentrifuge; spin at 37,500 rpm with rotor type 70 Ti for 50 mL tubes; 38,000 rpm with type 80Ti for 15 mL tubes; or 35,800 rpm with rotor type 45Ti). The supernantant is discarded and the pellet suspended in 3 to 4 mL of Tris buffer (50 mM TRIS-HCl, pH 7.4). The protein content is estimated by the Bradford or Lowry method. The volume of the membrane suspension is adjusted with the membrane buffer (50 mM Tris-HCl containing 0.1% BSA and 0.1 mM PMSF) to give 3.0 mg/mL (or as appropriate) of protein. The membranes are aliquoted and stored at −70° C. C. Radioligand Binding Assay: In wells of a 96-well format microtiter plate, is added 90, 110 or 130 μL (to make up a final volume of 200 μL) of assay buffer containing 50 mM of Tris-HCl (pH 7.4), BSA (heat inactivated, protease-free), […], 1 mg % aprotinin, 1 mg % leupeptin, 2 mg % 1,10-phenanthroline, 10 mg % trypsin inhibitor, and 0.1 mM PMSF. The inhibitors are added on the day of the experiment. The components are mixed at room temperature, and then kept in ice bath following adjustment of the pH to 7.4. […] 20 μL of 50% DMSO is added for Manning and other peptide ligands and the assay buffer volume is adjusted accordingly. To each well is added 50 μL of frozen membrane suspension thawed immediately prior to use and diluted in the assay buffer to the required concentration (equivalent to 25 to 50 μg of protein/well as needed). 20 μL of 8 nM [^3H]Manning ligand in the assay buffer, prepared just before use, is added, and incubated at room temperature for 60 min. shaking the plate on a mechanical shaker for the first 15 min. The incubation is stopped by rapid filtration of the plate contents followed by wash with ice-cold buffer (50 mM Tris-HCl, pH 7.4) using a cell harvester (Tomtek and Printed filtermat-B filter paper). The filter paper is thoroughly dried (7–12 min. in a microwave oven) and impregnated with MeltiLex B/H melt-on scintillation wax sheets and the radioactivity counted in a betaplate scintillation counter.
Binding data is either reported as percent inhibition at a certain concentration or if an IC50 was calculated, as a nanomolar concentration.

T1 sequence (P37288 whole entry): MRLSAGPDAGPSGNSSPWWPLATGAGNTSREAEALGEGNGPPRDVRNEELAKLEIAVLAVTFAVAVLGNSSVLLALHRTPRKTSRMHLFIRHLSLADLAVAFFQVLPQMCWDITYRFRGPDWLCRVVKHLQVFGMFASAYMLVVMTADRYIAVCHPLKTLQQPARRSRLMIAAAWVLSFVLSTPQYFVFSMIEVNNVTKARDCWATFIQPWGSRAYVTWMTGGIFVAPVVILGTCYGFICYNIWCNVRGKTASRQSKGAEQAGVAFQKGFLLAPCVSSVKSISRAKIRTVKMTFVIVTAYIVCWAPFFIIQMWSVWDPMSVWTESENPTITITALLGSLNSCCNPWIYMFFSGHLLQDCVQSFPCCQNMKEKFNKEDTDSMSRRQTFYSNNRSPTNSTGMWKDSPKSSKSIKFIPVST

Row | SMILES | inhibition at 0.1 µM | V1a % inhibition @ 100 nM
1 | COc1ccccc1-c1ccc(C(=O)N2Cc3ccc(C(=O)NCCN4CCCCC4)n3Cc3ccccc32)cc1C [Example 149, 10-[(2′-Methoxy-2-methyl[1,1′-biphenyl]-4-yl)carbonyl]-N-[2-(1-piperidinyl)ethyl]-10,11-dihydro-5H-pyrrolo[2,1-c][1,4]benzodiazepine-3-carboxamide] | 17% | 
2 | O=C(c1ccc(-c2cccc3ccccc23)cc1Cl)N1Cc2ccc(C(=O)N3CCC[C@H]3CN3CCCC3)n2Cc2ccccc21 [Example 261, {10-[2-Chloro-4-(1-naphthyl)benzoyl]-10,11-dihydro-5H-pyrrolo[2,1-c][1,4]benzodiazepin-3-yl}[(2S)-2-(1-pyrrolidinylmethyl)pyrrolidinyl]methanone] |  | 13%
3 | Cc1cc(C(=O)N2Cc3ccc(C(=O)NCCCn4ccnc4)n3Cc3ccccc32)ccc1-c1ccccc1C(F)(F)F [Example 135, N-[3-(1H-Imidazol-1-yl)propyl]-10-{[2-methyl-2′-(trifluoromethyl)[1,1′-biphenyl]-4-yl]carbonyl}-10,11-dihydro-5H-pyrrolo[2,1-c][1,4]benzodiazepine-3-carboxamide] | 2% | 
4 | COc1ccccc1-c1ccc(C(=O)N2Cc3ccc(C(=O)N4CCC(N5CCCC5)CC4)n3Cc3ccccc32)cc1OC [Example 145, {10-[(2,2′-Dimethoxy[1,1′-biphenyl]4-yl)carbonyl]-10,11-dihydro-5H-pyrrolo[2,1-c][1,4]benzodiazepin-3-yl}[4-(1-pyrrolidinyl)-l-piperidinyl]methanone] |  | −4%
5 | COc1cccc(-c2ccc(C(=O)N3Cc4ccc(C(=O)N5CCC(N6CCCC6)CC5)n4Cc4ccccc43)cc2C)c1 [Example 139, {10-[(3′-Methoxy-2-methyl[1,1′-biphenyl]-4-yl)carbonyl]-10,11-dihydro-5H-pyrrolo[2,1-c][1,4]benzodiazepin-3-yl}[4-(1-pyrrolidinyl)-1-piperidinyl]methanone] | 9% | 
6 | Cc1cccc(N2CCN(C(=O)c3ccc4n3Cc3ccccc3N(C(=O)c3ccc(-c5ccccc5C(F)(F)F)c(C)c3)C4)CC2C)c1 (stereo not shown) [Example 5, [3-Methyl-4-(3-methyl-phenyl)-piperazin-1-yl]-[10-(2-methyl-2′-trifluoromethyl-[1,1′-biphenyl]-4-yl)carbonyl]-10,11-dihydro-5H-pyrrolo[2,1-c][1,4]benzodiazepin-3-yl-methanone] |  | −6%
7 | Cc1ccccc1-c1ccc(C(=O)N2Cc3ccc(C(=O)NCCN4CCCCC4)n3Cc3ccccc32)cc1C [Example 150, 10-[(2,2′-Dimethyl[1,1′-biphenyl]-4-yl)carbonyl]-N-[2-(1-piperidinyl)ethyl]-10,11-dihydro-5H-pyrrolo[2,1-c][1,4]benzodiazepine-3-carboxamide] | 42% | 
8 | COc1cccc(-c2cc(OC)c(C(=O)N3Cc4ccc(C(=O)N5CCC(N6CCCC6)CC5)n4Cc4ccccc43)cc2Cl)c1 [Example 143, {10-[(6-Chloro-3,3′-dimethoxy[1,1′-biphenyl]-4-yl)carbonyl]-10,11-dihydro-5H-pyrrolo[2,1-c][1,4]benzodiazepin-3-yl}[4-(1-pyrrolidinyl)-1-piperidinyl]methanone] | -3% | 
9 | COc1cc(C(=O)N2Cc3ccc(C(=O)N4CCC(N5CCCCC5)CC4)n3Cc3ccccc32)ccc1-c1ccccc1C [Example 116, {10-[(2-Methoxy-2′-methyl[1,1′-biphenyl]-4-yl)carbonyl]-10,11-dihydro-5H-pyrrolo[2,1-c][1,4]benzodiazepin-3-yl}[4-(1-piperidinyl)-1-piperidinyl]methanone] | 42% | 
10 | COc1cc(-c2ccccc2C)c(Cl)cc1C(=O)N1Cc2ccc(C(=O)N3CCC[C@H]3CN3CCCC3)n2Cc2ccccc21 [Example 267, {10-[(6-Chloro-3-methoxy-2′-methyl[1,1′-biphenyl]-4-yl)carbonyl]-10,11-dihydro-5H-pyrrolo[2,1-c][1,4]benzodiazepin-3-yl}[(2S)-2-(1-pyrrolidinylmethyl)pyrrolidinyl]methanone] |  | 12%
